Holding throughout (test): inhibition of tumour cell growth, NCI panel, 48 h
In assay [1] the test system is K-562 leukemia.
Assay [2] relates to MALME-3M melanoma.
The test system of assay [3] is OVCAR-3 ovarian.
The test system of assay [4] is OVCAR-5 ovarian.
For assay [5], the system named is SK-MEL-5 melanoma.
Assay [6] has as its system SNB-19 CNS.
The subject of assay [7] is SR leukemia.
Assay [8] has as its system UACC-62 melanoma.
Assay [9] has as its system DU-145 prostate.

Molecules are shown by their SMILES.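 Following 48 hours of exposure in 96-well plates, responses at five concentrations were used to interpolate endpoints linearly. GI50: concentration for 50% inhibition of growth. At the TGI there is no net growth.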

For the compound `CC([O-])=C1C(=O)c2ccccc2C1=O.CC([O-])=C1C(=O)c2ccccc2C1=O.CC[O-].CC[O-].[Ti+4]`, the GI50 in assay [1] is more than 100 µM; in assay [2], more than 100000 nM; in assay [3], more than 100 µM; in assay [4], more than 100 µM; in [5], more than 100 µM; in assay [6], 44.1 µM. Besides, the GI50 in assay [7] and in assay [8] was more than 100 µM each time. Moreover, the TGI in assay [1], in [2], in [3], in assay [4], in assay [5] and in assay [6] was more than 100 µM in each case. Further, the TGI in [7] and in assay [8] was more than 100 µM throughout.
For `O=C1OC(=O)C2C3C=CC(C12)C1C2C=CC2C31` (stereo not drawn), the TGI in assay [1], in assay [2], in [4], in assay [6] and in [7] was more than 100 µM each time.
Take `O=c1c2cc3c(cc2c2cccc4c2n1CCC4)OCO3`: the TGI in assay [1], in [2], in assay [3], in [4], in [5] and in assay [6] was more than 100 µM in each case. Also, the TGI in assay [7] is 91.3 µM; in [8], more than 100 µM.
Consider `COCCOCCOCCOc1cccc2c1C(=O)c1cccc(OCCOCCOCCOC)c1C2=O`, for which the TGI in [1], in assay [3], in assay [5], in assay [6] and in [8] was more than 100 µM each time.
`O=C(NCCCl)SCCO`: the TGI in assay [1], in [2], in [3], in assay [4], in assay [6] and in assay [7] was more than 100 µM each time. The same compound displayed a TGI in [8] of more than 100 µM.
Take `NC(=O)NC1C(C(=O)O)N(Cc2ccccc2)C(=O)N1Cc1ccccc1` (stereo not drawn): the TGI in assay [1], in assay [2], in assay [3], in assay [4], in assay [5] and in assay [6] was more than 100 µM each time. Moreover, the TGI in [7] and in [8] was more than 100 µM in each case.
For `COc1ccc(C(=O)c2sc3nc(-c4cccs4)ccc3c2N)cc1OC`, the GI50 in assay [9] was 16 µM; in [1], 2.1 µM; in [3] it was 6.78 µM; in [4], 19.8 µM; in [5] it was 2.01 µM; in assay [6], more than 100 µM. Further, the values for the GI50 in assay [7] and in [8] were 3.26 µM and 6.47 µM, respectively. For the same compound, the TGI was more than 100 µM in assay [9]; more than 100 µM in assay [1]; more than 100 µM in [3]; more than 100 µM in [4]; 5.28 µM in assay [5]; more than 100 µM in assay [6]. In addition, the TGI in assay [7] is 22.7 µM; in assay [8] it was more than 100 µM.
With `COc1cccc(N2C(=O)C3C4C=C5c6ccccc6N(c6ccccc6)C5(C3C2=O)[C@H]2C(=O)N(c3cccc(OC)c3)C(=O)[C@@H]42)c1` (stereo partly drawn), the TGI in assay [1], in [2], in assay [3], in assay [4], in assay [5] and in assay [6] was more than 100 µM in each case. In addition, the TGI in [7] and in assay [8] was more than 100 µM in each case.
Turning to `COc1cc2ccnc3c(=C(SC)SC)c(=O)c(c1OC)c23`, the TGI was 16.3 µM in [1]; 24.7 µM in assay [2]; 28.4 µM in assay [3]; 35.9 µM in assay [4]; more than 100 µM in assay [6]; 37.9 µM in assay [8].
Take `COc1ccc(-c2csc(NC(=O)CN3CCN(c4cc5c(cc4F)c(=O)c(C(=O)O)cn5C4CC4)CC3)n2)cc1`: the GI50 is 3.35 µM in assay [9]; 2370 nM in assay [2]; 3.86 µM in [3]; 4.1 µM in assay [6]; 2.96 µM in assay [7]; 4.18 µM in [8]. In addition, the TGI in [9] is more than 100 µM; in assay [2] it was 7.49 µM; in assay [3], more than 100 µM; in assay [6] it was more than 100 µM; in assay [7], more than 100 µM; in assay [8], more than 100 µM.
As to `COc1ccc(C(=O)C#Cc2c[nH]c(=O)[nH]c2=O)cc1`, the TGI is 37.3 µM in [1]; 18.7 µM in assay [2]; 21.6 µM in assay [3]; 31 µM in [4]; 27.9 µM in assay [5]; 44.7 µM in assay [6]. Moreover, the TGI in assay [7] was 8.38 µM; in assay [8], 32.8 µM.
Regarding `N#Cc1cccc(C=NC23CC4CC(CC(C4)C2)C3)c1`, the TGI in [1], in assay [2], in [3], in [4], in [6] and in assay [7] was more than 100 µM throughout. In [8], this compound gave a TGI of more than 100 µM.
For the compound `COc1c(N2CCN(CN3C(=O)C(=O)c4cc(Cl)ccc43)C(C)C2)c(F)cc2c(=O)c(C(=O)O)cn(C3CC3)c12` (stereo not drawn), the GI50 in [9] is 70.6 µM; in assay [1], 14 µM; in [3] it was 30 µM; in assay [4], 85.9 µM; in assay [5] it was 15.6 µM; in assay [6] it was 92.2 µM. The GI50 in assay [7] is 4.51 µM; in [8] it was 20.6 µM. The TGI in [9] was more than 100 µM; in [1], more than 100 µM; in assay [3] it was more than 100 µM; in [4], more than 100 µM; in assay [5], 34.8 µM; in assay [6], more than 100 µM. Besides, the TGI in assay [7] is more than 100 µM; in assay [8] it was 65.3 µM.
With `C=C(C(=C)P(=S)(C(C)C)C(C)C)P(=S)(C(C)C)C(C)C`, the TGI in assay [1], in [2], in assay [3], in assay [4], in [5] and in assay [6] was more than 100 µM each time. The TGI in assay [7] and in assay [8] was more than 100 µM in each case.
Turning to `COc1cc(C(C)O)c[n+](CCC2CNc3ccccc32)c1` (stereo not drawn), the TGI in [1], in assay [2], in assay [3], in assay [5], in assay [6] and in assay [7] was more than 100 µM each time. For the same compound, the TGI in [8] was more than 100 µM.
Regarding `c1ccc(OCc2nnc3n2N=C(c2ccccc2)CS3)cc1`, the TGI in [1], in assay [2], in assay [3], in assay [4], in assay [5] and in assay [6] was more than 100 µM in each case. The TGI in assay [7] and in [8] was more than 100 µM throughout.
`COc1ccc(NC(=O)CC(=O)n2nc(C)c(N=Nc3ccccc3C(=O)O)c2C)cc1`: the TGI in assay [1], in assay [2], in assay [3], in [4], in assay [5] and in [6] was more than 100 µM each time. Also, the TGI in assay [8] is more than 100 µM.
In the case of `CC(=O)NC(C=O)C(O[C@H](C)C(=O)NC(C)C(=O)NC(CCC(N)=O)C(=O)OCc1ccccc1)C(O)C(O)COC(=O)CCNc1c2ccccc2nc2cccc([N+](=O)[O-])c12` (stereo partly drawn), the TGI is 9.62 µM in assay [1]; 4.67 µM in assay [2]; 4.01 µM in assay [3]; 13.2 µM in assay [4]; more than 100 µM in assay [5]; 17.4 µM in assay [6]. For the same compound, the TGI in [7] is 2.69 µM; in [8] it was 10.5 µM.
Turning to `CCCCCCCCCCCc1c(O)c(=O)c2c(oc3c(=O)c(CCCCCCCCCCC)c(O)c(=O)c3n2-c2ccc(N(C)C)cc2)c1=O`, the TGI in assay [1] was more than 100 µM; in assay [2] it was 37.9 µM; in assay [3], 38.6 µM; in assay [4], 50.9 µM; in assay [5], 34 µM; in assay [6] it was 58.9 µM. The TGI in assay [7] is more than 100 µM; in [8] it was 34.3 µM.
For `O=c1[nH]cnc2c(COCCO)c[nH]c12`, the TGI in assay [1], in assay [2], in assay [3], in assay [4], in [5] and in assay [6] was more than 100 µM throughout. Also, the TGI in [7] and in assay [8] was more than 100 µM throughout.
As for `Cc1c2c(c(C)c3c1[nH]c1ccccc13)CN(C)CC2`, the TGI in assay [1] is more than 100 µM; in [2], 30.3 µM; in [3], 52.7 µM; in assay [4], more than 100 µM; in assay [5] it was 26.1 µM; in [6], more than 100 µM. Besides, the TGI in assay [7] is 87.8 µM; in assay [8], 31.9 µM.
Regarding `CC(=O)c1ccc(NC(=O)C(=O)C(C#N)CC(C)(C)C=O)cc1` (stereo not drawn), the TGI in [1], in assay [2], in assay [3], in assay [4], in assay [5] and in [6] was more than 100 µM each time. Also, the TGI in [7] and in assay [8] was more than 100 µM each time.
For the compound `CCC1(CN(C)C)CC/C(=C\c2ccc(OC)c(OC)c2)C1=O` (stereo not drawn), the TGI in [1], in assay [2], in assay [3], in [4], in [5] and in [6] was more than 100 µM in each case. Also, the TGI in [8] is more than 100 µM.
Take `NC(=O)CC(N=Cc1nc(-c2ccccc2)oc1O)C(=O)O` (stereo not drawn): the TGI in [1], in assay [2], in assay [3], in [4], in assay [5] and in assay [6] was more than 100 µM in each case. The compound also had a TGI in assay [8] of more than 100 µM.
For the compound `Cc1ccc(NC(=O)CCc2n[nH]c(=S)o2)cc1`, the TGI in assay [1], in assay [2], in assay [3], in assay [4], in assay [5] and in assay [6] was more than 100 µM each time. For the same compound, the TGI in assay [7] and in [8] was more than 100 µM in each case.
Consider `COc1cccc(SSc2cccc(OC)c2C(=O)O)c1C(=O)O`, for which the TGI in assay [1], in [2], in [3], in [4], in assay [5] and in assay [7] was more than 100 µM each time. This compound came in with a TGI in [8] of more than 100 µM.
Take `N#CC1=C(O)NC(O)=C(C#N)C1c1ccc(C2C(C#N)=C(O)NC(O)=C2C#N)cc1`: the TGI in [1], in assay [2], in [3], in assay [5], in assay [6] and in [8] was more than 100 µM in each case.
As for `COC(=O)Cc1cc(=O)[nH]c2c1C(=O)CCC2`, the TGI in assay [1], in assay [2], in assay [3], in assay [4], in assay [5] and in assay [6] was more than 100 µM in each case. Moreover, the TGI in assay [7] was more than 100 µM.
Turning to `Cc1ccc(S(=O)(=O)N/N=C/C(C)C)cc1`, the TGI in assay [1], in [2], in assay [3], in [4], in [5] and in assay [6] was more than 100 µM each time. The TGI in assay [8] was more than 100 µM.
Consider `O=C1CCCCC12CCC/C2=N\O` (stereo not drawn), for which the TGI in [1], in [2], in [3], in assay [5], in assay [6] and in assay [7] was more than 100 µM throughout. In addition, the TGI in [8] was more than 100 µM.
